Results reported in the NIST ThermoML archive (doi:10.1021/je0342320).

Details: Liquid, Vibrating tube method

CCCCCCCCCC [decane]
mass density [kg/m3]
Details | 283.15 K | 288.15 K | 293.15 K | 298.15 K | 303.15 K | 308.15 K | 313.15 K | 318.15 K | 323.15 K | 328.15 K
100 kPa | 737.4 | 733.69 | 729.94 | 726.19 | 722.46 | 718.65 | 714.79 | 710.99 | 707.17 | 703.3
5000 kPa | 740.81 | 737.19 | 733.53 | 729.88 | 726.23 | 722.52 | 718.83 | 715.08 | 711.4 | 707.67
10000 kPa | 744.17 | 740.63 | 737.08 | 733.52 | 729.98 | 726.36 | 722.76 | 719.13 | 715.55 | 711.97
15000 kPa | 747.39 | 743.93 | 740.5 | 737 | 733.55 | 730.01 | 726.52 | 722.99 | 719.49 | 716.03
20000 kPa | 750.49 | 747.14 | 743.76 | 740.37 | 736.98 | 733.55 | 730.14 | 726.69 | 723.28 | 719.87
25000 kPa | 753.52 | 750.22 | 746.92 | 743.6 | 740.29 | 737.01 | 733.61 | 730.22 | 726.9 | 723.57
30000 kPa | 756.43 | 753.19 | 749.98 | 746.72 | 743.46 | 740.13 | 736.95 | 733.65 | 730.37 | 727.1
35000 kPa | 759.27 | 756.11 | 752.94 | 749.72 | 746.54 | 743.26 | 740.17 | 736.93 | 733.71 | 730.51
40000 kPa | 762.02 | 758.92 | 755.79 | 752.67 | 749.5 | 746.32 | 743.25 | 740.05 | 736.93 | 733.79

COC(=O)OC [dimethyl carbonate]
mass density [kg/m3]
Details | 283.15 K | 288.15 K | 293.15 K | 298.15 K | 303.15 K | 308.15 K | 313.15 K | 318.15 K | 323.15 K | 328.15 K
100 kPa | 1083.17 | 1076.43 | 1069.76 | 1063.1 | 1056.41 | 1049.66 | 1042.86 | 1036.04 | 1029.21 | 1022.24
5000 kPa | 1087.33 | 1080.8 | 1074.22 | 1067.7 | 1061.17 | 1054.59 | 1047.94 | 1041.3 | 1034.63 | 1027.92
10000 kPa | 1091.39 | 1085.02 | 1078.58 | 1072.21 | 1065.82 | 1059.39 | 1052.91 | 1046.44 | 1039.95 | 1033.45
15000 kPa | 1095.34 | 1089.07 | 1082.76 | 1076.52 | 1070.29 | 1064 | 1057.67 | 1051.36 | 1045.04 | 1038.69
20000 kPa | 1099.13 | 1093 | 1086.83 | 1080.7 | 1074.59 | 1068.43 | 1062.22 | 1056.08 | 1049.91 | 1043.71
25000 kPa | 1102.79 | 1096.79 | 1090.73 | 1084.74 | 1078.74 | 1072.65 | 1066.6 | 1060.6 | 1054.58 | 1048.53
30000 kPa | 1106.39 | 1100.48 | 1094.5 | 1088.62 | 1082.75 | 1076.8 | 1070.82 | 1064.95 | 1059.07 | 1053.14
35000 kPa | 1109.85 | 1104.03 | 1098.19 | 1092.39 | 1086.6 | 1080.78 | 1074.93 | 1069.15 | 1063.39 | 1057.57
40000 kPa | 1113.17 | 1107.5 | 1101.74 | 1096.04 | 1090.35 | 1084.63 | 1078.87 | 1073.21 | 1067.56 | 1061.87
